The text below walks through data of PMC11768359, “2-Aminothiophene Derivatives—New Drug Candidates Against Leishmaniasis: Drug Design, Synthesis, Pharmacomodulation, and Antileishmanial Activity” (Pharmaceuticals, 2025).

Each structure is given as a SMILES string. Where only a bound is given, the exact number is not on record here.

The first data set has as its system axenic amastigotes of L. amazonensis. Put plainly: Growth inhibition of axenic amastigote forms of L. amazonensis (MTT). Type of data set: cell-based, Leishmania amazonensis. To be noted: 72 h, 32 °C. The method, then:
(§1) The in vitro tests utilized Leishmania amazonensis parasites (IFLA/BR/67/PH8). These leishmania cell lines were obtained from Oswaldo Cruz Foundation (FIOCRUZ)/Brazil. The promastigote forms were cultivated in Schneider’s insect medium at 26 °C in a biological oxygen demand (BOD) incubator. Schneider’s insect medium was supplemented with 20% fetal bovine serum (FBS) and 1% penicillin (100 U/mL) and streptomycin (µg/mL) (complete Schneider). Next, we differentiated them from promastigote forms by changing the conditions to Schneider’s insect medium supplemented with 5% FBS, pH 4.6, and a temperature of 32 °C to obtain axenic amastigote forms of L. amazonensis. Meanwhile, RAW 264.7 macrophages were cultured in […] cell culture flasks using DMEM medium supplemented with 10% FBS, 1% penicillin 100 U/mL, and 100 μg/mL streptomycin (complete DMEM) and incubated at 37 °C and 5% CO2.
(§2) Parasite growth inhibition was evaluated using the methodology described by Rodrigues et al. (2015). Cultures of logarithmically growing promastigote and axenic amastigote forms (1 × 10^6 parasites/mL) were incubated in 96-well plates containing 100 µL of supplemented Schneider’s medium in triplicate. Serial concentrations of 2-amino-thiophene and 2-amino-selenophene derivatives (10.00–0.156 μM) and the reference drugs meglumine antimoniate (500–40,000 μg/mL), amphoterecinB (0.1–2 μM), and pentamidine (3.12–100 µM) were added. BNP was used as a negative control. The cultures were incubated in a biological oxygen demand oven (model Eletrolab EL202, São Paulo, Brazil) at 26 °C for promastigotes and 32 °C for axenic amastigotes for 72 h. Then, 10 μL of MTT (5 mg/mL) was added to each well to colorimetrically evaluate growth inhibition. The plate was subsequently incubated for a further 4 h, followed by adding 50 μL of 10% sodium dodecyl sulfate solution for […] before the optical density of the culture was read on a microplate spectrophotometer reader. The reading was taken at the test and reference wavelengths of 540 and 620 nm using a microplate spectrophotometer. The negative control consisted of 0.2% […] with BNP, considered to be 100% viable.
The compound `CCCC1CCc2c(sc(N)c2C#N)C1` (stereo not shown) [Compound 15] had a concentration for half-maximal inhibition (IC50) of 9.3 µM.

Staying with this data set, now noted: Leishmania amazonensis, 72 h, 32 °C.
Regarding `Cc1cc(C#N)c(N)s1` [Compound 1], the IC50 is > 10 µM.
For `NC(=O)c1ccsc1N` [Compound 2], the IC50 is > 10 µM.
The same measure, in the same setting: in the case of `CCOC(=O)c1ccsc1N` [Compound 3] it was > 10 µM.
Regarding `N#Cc1c(N)sc2c1CCC2` [Compound 4], the IC50 was > 10 µM.
Take `NC(=O)c1c(N)sc2c1CCCC2` [Compound 7]: the IC50 was > 10 µM.
On to `NC(=O)c1c(N)sc2c1CCCCCC2` [Compound 8], for which the IC50 was > 10 µM.
Still for that read-out and setting: in the case of `CC1CCc2c(sc(N)c2C#N)C1` (stereo not shown) [Compound 13] it was > 10 µM; in that of `CCC1CCc2c(sc(N)c2C#N)C1` (stereo not shown) [Compound 14], > 10 µM; in that of `CCCC1CCc2c(sc(N)c2C#N)C1` (stereo not shown) [Compound 15], < 10 µM.
The same measure, in the same setting: next, `CC(C)(C)OC(=O)N1CCc2c(sc(N)c2C#N)C1` [Compound 17, 2-Amino-6-N-Boc-Piperidine[b]Thiophene-3-Carbonitrile]: > 10 µM; `N#Cc1c(N)sc2c1CCN(Cc1ccccc1)C2` [Compound 18]: > 10 µM; `CCOC(=O)c1c(N)sc2c1CCN(C(=O)OC(C)(C)C)C2` [Compound 21]: 2.9 µM.
Still for that read-out and setting: in the case of `N#Cc1c(N)sc2c1CCNC2` [Compound 23] it was > 10 µM.
Regarding `Cc1cc(C#N)c(/N=C/c2c[nH]c3ccc(Br)cc23)s1` [Compound 24], the IC50 is > 10 µM.
Still for that read-out and setting: next, `CCC1CCc2c(sc(/N=C/c3c[nH]c4ccc(Br)cc34)c2C#N)C1` (stereo not shown) [Compound 27]: > 10 µM.
`CCCC1CCc2c(sc(/N=C/c3c[nH]c4ccc(Br)cc34)c2C#N)C1` (stereo not shown) [Compound 28]: the IC50 is > 10 µM.
`CC(C)(C)C1CCc2c(sc(/N=C/c3c[nH]c4ccc(Br)cc34)c2C#N)C1` (stereo not shown) [Compound 29]: the IC50 was > 10 µM.
With `CC(C)(C)OC(=O)N1CCc2c(sc(/N=C/c3c[nH]c4ccc(Br)cc34)c2C#N)C1` [Compound 31], the IC50 is > 10 µM.

For another data set, the system named is promastigotes of L. amazonensis. Put plainly: Growth inhibition of promastigote forms of L. amazonensis (MTT). The following applies: 72 h, 26 °C. It is filed as cell-based, Leishmania amazonensis. The protocol: as §1, §2
As for `NC(=O)c1ccsc1N` [Compound 2], the 50% inhibitory concentration (IC50) was > 10 µM.
On the same count and under the same terms, next, `CCOC(=O)c1ccsc1N` [Compound 3]: > 10 µM; `NC(=O)c1c(N)sc2c1CCCC2` [Compound 7]: > 10 µM.
On the same count and under the same terms, next, `NC(=O)c1c(N)sc2c1CCCCCC2` [Compound 8]: > 10 µM.
Still for that read-out and setting: in the case of `CCCC1CCc2c(sc(N)c2C#N)C1` (stereo not shown) [Compound 15] it was 9.2 µM.
Take `N#Cc1c(N)sc2c1CCN(Cc1ccccc1)C2` [Compound 18]: the “IC50 Promastigotes” value was “inactive compound”.
Regarding `CCOC(=O)c1c(N)sc2c1CCC(C)C2` (stereo not shown) [Compound 20], the IC50 was > 10 µM.
The same measure, in the same setting: next, `CCCC1CCc2c(sc(/N=C/c3c[nH]c4ccc(Br)cc34)c2C#N)C1` (stereo not shown) [Compound 28]: 8.12 µM.
`N#Cc1c(/N=C/c2c[nH]c3ccccc23)[se]c2c1CCCC2` [Compound 32]: the “IC50 Promastigotes” value was “not active up to the highest concentration evaluated”.

Still in this data set, the particulars now being: Leishmania amazonensis, 72 h, 26 °C.
Turning to `Cc1cc(C#N)c(N)s1` [Compound 1], the half-maximal inhibitory concentration (IC50) was > 10 µM.
The same measure, in the same setting: next, `NC(=O)c1ccsc1N` [Compound 2]: ≥ 10 µM.
The same measure, in the same setting: in the case of `CCOC(=O)c1ccsc1N` [Compound 3] it was ≥ 10 µM; in that of `N#Cc1c(N)sc2c1CCC2` [Compound 4], > 10 µM; in that of `NC(=O)c1c(N)sc2c1CCCC2` [Compound 7], ≥ 10 µM.
Still for that read-out and setting: in the case of `NC(=O)c1c(N)sc2c1CCCCCC2` [Compound 8] it was ≥ 10 µM.
For the compound `CC1CCc2c(sc(N)c2C#N)C1` (stereo not shown) [Compound 13], the 50% inhibitory concentration (IC50) is > 10 µM.
As to `CCC1CCc2c(sc(N)c2C#N)C1` (stereo not shown) [Compound 14], the IC50 is > 10 µM.
Same read-out and setting: next, `CCCC1CCc2c(sc(N)c2C#N)C1` (stereo not shown) [Compound 15]: < 10 µM.
The same measure, in the same setting: next, `CC(C)(C)OC(=O)N1CCc2c(sc(N)c2C#N)C1` [Compound 17, 2-Amino-6-N-Boc-Piperidine[b]Thiophene-3-Carbonitrile]: 8.61 µM; `N#Cc1c(N)sc2c1CCN(Cc1ccccc1)C2` [Compound 18]: > 10 µM.
The same measure, in the same setting: next, `CCOC(=O)c1c(N)sc2c1CCC(C)C2` (stereo not shown) [Compound 20]: ≥ 10 µM; `CCOC(=O)c1c(N)sc2c1CCN(C(=O)OC(C)(C)C)C2` [Compound 21]: 3.1 µM.
For `N#Cc1c(N)sc2c1CCNC2` [Compound 23], the concentration for half-maximal inhibition (IC50) was > 10 µM.
The same measure, in the same setting: next, `Cc1cc(C#N)c(/N=C/c2c[nH]c3ccc(Br)cc23)s1` [Compound 24]: > 10 µM; `CCC1CCc2c(sc(/N=C/c3c[nH]c4ccc(Br)cc34)c2C#N)C1` (stereo not shown) [Compound 27]: > 10 µM.
`CCCC1CCc2c(sc(/N=C/c3c[nH]c4ccc(Br)cc34)c2C#N)C1` (stereo not shown) [Compound 28]: the half-maximal inhibitory concentration (IC50) is < 10 µM.
On the same count and under the same terms, next, `CC(C)(C)C1CCc2c(sc(/N=C/c3c[nH]c4ccc(Br)cc34)c2C#N)C1` (stereo not shown) [Compound 29]: > 10 µM; `CC(C)(C)OC(=O)N1CCc2c(sc(/N=C/c3c[nH]c4ccc(Br)cc34)c2C#N)C1` [Compound 31]: > 10 µM.
The same measure, in the same setting: next, `N#Cc1c(/N=C/c2c[nH]c3ccccc23)[se]c2c1CCCC2` [Compound 32]: > 10 µM.

Test system in a further data set: not listed separately
Kind of data set: Cytotoxicity in macrophages (MTT). It is filed as cell-based. To be noted: mouse, RAW 264.7 macrophages. The method, then: as §1
First, 100 μL DMEM medium complete with 1 × 10^6 macrophages (RAW 264.7) was added to each well of a 96-well plate. RAW 264.7 macrophages were obtain from ATCC: code TIB-71^TM. The plate was placed in an incubator (37 °C, 5% CO2) (Sanyo, model COM-15A, Sanyo Electric Co., Osaka, Japan) for 4 h to promote cell adhesion. After this period, two washes were conducted with previously heated DMEM medium (37 °C) to remove non-adhered cells. 2-amino-thiophene and 2-amino-selenophene derivatives were added to wells at serial concentrations of 400 to 25 µM and then incubated for 48 h. Next, 10 μL of MTT at a […] of 5 mg/mL were added to each well and incubated for 4 h. The plate was then shaken for 30 min and read at the test and reference wavelengths of 550 and 620 nm, respectively, in a plate reader. DMEM medium supplemented with 0.5% DMSO was used as a negative control and considered as 100% macrophage viability. The selectivity index for each treatment was calculated as the ratio between the concentration of cytotoxicity of RAW 264.7 macrophages (CC50) and the 50% inhibitory concentration (IC50) or effective concentration (EC50), as measured for the different evolutionary forms of L. amazonensis.
With `CCOC(=O)c1c(N)sc2c1CCN(C(=O)OC(C)(C)C)C2` [Compound 21], the half-maximal cytotoxic concentration (CC50) at 48 h stood at 221 µM.

Broadly, the IC50 is the concentration at which inhibition is half-maximal. Low values mean greater potency, high ones weaker potency. Broadly, the CC50 is the concentration that lowers cell viability or growth by half. High values mean better tolerance by the cells, low ones harm at low concentration.
